One assay deals with T1, hSyk (full length) (Homo sapiens, UniProt P43405).
T1 construct: Purified recombinant hSyk (full length)
The assay is described as follows: Inhibition of enzymatic Syk kinase activity (HTRF). In kind it is biochemical. Here is the method: (§1) Purified recombinant hSyk (full length) and Zap70 (kinase domain) diluted in assay buffer are dispensed in 384 well proxi-plates. […] 50 nL of diluted compounds are added to the enzyme solutions and incubated for […] at room temperature, after which ATP and biotynilated peptide substrate are added. Substrate phosphorylation is a function of the HTRF signal measured following the addition of Cisbio-HTRF reagents.
On the technique in general: Time-resolved FRET reads energy transfer from a long-lived donor to a nearby acceptor.

For a further assay, the target named is T2, Zap70 (kinase domain) (Homo sapiens, UniProt P43403).
T2 construct: Zap70 (kinase domain)
T2 sequence (P43403 338-600 limits assumed): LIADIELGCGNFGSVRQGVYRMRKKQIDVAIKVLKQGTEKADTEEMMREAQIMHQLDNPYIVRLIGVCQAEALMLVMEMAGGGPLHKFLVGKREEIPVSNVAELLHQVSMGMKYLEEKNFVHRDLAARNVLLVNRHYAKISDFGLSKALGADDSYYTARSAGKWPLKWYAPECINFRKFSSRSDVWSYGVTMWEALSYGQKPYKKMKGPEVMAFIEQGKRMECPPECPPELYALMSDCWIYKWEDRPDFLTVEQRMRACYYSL
Description: Inhibition of enzymatic Zap70 kinase activity (HTRF). In kind it is biochemical. Here is the method:
as §1

A further assay concerns the target T3, BaF3/Tel-Syk (Homo sapiens, UniProt P43405).
T3 construct: fused on or other part: Dimerization domain of Tel (ETV6), fused to Syk; it is part of the key as ETV6; The host cells also express luciferase, which serves only as the read-out; P41212 (Transcription factor ETV6)
Description: BaF3/Tel-Syk cellular proliferation assay. In kind it is cell-based, murine. As to conditions: read-out: IC50 in BaF3/Tel-Syk cellular assay.

The next assay has as its target T4, BaF3/Tel-KDR (Homo sapiens, UniProt P35968).
T4 construct: fused on or other part: Dimerization domain of Tel (ETV6), fused to KDR; it is part of the key as ETV6; The host cells also express luciferase, which serves only as the read-out; P41212 (Transcription factor ETV6)
The assay is described as follows: BaF3/Tel-KDR cellular proliferation assay. In kind it is cell-based, murine. As to conditions: read-out: IC50 in BaF3/Tel-KDR cellular assay.

The target in a further assay is T5, BaF3/Tel-FMS (Homo sapiens, UniProt P07333).
T5 construct: fused on or other part: Dimerizing part of Tel (ETV6), fused to FMS; it is part of the key as ETV6; P41212 (Transcription factor ETV6)
T5 sequence (P07333 582-910 limits assumed): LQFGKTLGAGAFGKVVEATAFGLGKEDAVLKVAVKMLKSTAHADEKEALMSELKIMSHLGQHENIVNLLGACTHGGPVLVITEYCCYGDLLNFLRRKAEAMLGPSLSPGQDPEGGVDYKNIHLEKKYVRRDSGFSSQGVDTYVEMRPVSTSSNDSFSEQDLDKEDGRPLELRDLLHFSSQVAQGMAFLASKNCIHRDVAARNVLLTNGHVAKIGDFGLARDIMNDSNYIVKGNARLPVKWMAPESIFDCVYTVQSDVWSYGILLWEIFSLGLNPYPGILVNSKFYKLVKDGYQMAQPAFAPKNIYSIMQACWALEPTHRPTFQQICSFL
Description: BaF3/Tel-FMS cellular proliferation assay. In kind it is cell-based, murine. As to conditions: read-out: IC50 in BaF3/Tel-FMS cellular assay.

For another assay, the target named is T6, BaF3/Tel-KIT (Homo sapiens, UniProt P10721).
T6 construct: fused on or other part: Dimerizing part of Tel (ETV6), fused to c-Kit; P41212 (Transcription factor ETV6)
T6 sequence (P10721 589-937 limits assumed, change not shown): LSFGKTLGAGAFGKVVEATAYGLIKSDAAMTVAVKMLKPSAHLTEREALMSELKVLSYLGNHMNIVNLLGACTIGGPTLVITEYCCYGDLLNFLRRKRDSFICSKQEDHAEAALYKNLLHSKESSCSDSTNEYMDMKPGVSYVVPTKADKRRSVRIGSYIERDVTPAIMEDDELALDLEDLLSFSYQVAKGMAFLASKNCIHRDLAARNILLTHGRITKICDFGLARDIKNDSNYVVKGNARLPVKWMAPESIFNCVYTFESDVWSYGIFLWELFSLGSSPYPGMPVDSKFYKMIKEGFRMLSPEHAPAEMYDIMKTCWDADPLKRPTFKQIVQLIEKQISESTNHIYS
The assay is described as follows: BaF3/Tel-KIT cellular proliferation assay. In kind it is cell-based, murine. The settings on record: read-out: IC50 in BaF3/Tel-KIT cellular assay.

Setting [1] is: IC50 for Syk inhibition, Table 2, read-out: Syk HTRF.

The structures appear in SMILES notation. pIC50: −log10 of the molar value. Like-named read-outs stand apart in the source and are kept apart here.

T4 sequence (P35968 834-1162 limits assumed, change not shown): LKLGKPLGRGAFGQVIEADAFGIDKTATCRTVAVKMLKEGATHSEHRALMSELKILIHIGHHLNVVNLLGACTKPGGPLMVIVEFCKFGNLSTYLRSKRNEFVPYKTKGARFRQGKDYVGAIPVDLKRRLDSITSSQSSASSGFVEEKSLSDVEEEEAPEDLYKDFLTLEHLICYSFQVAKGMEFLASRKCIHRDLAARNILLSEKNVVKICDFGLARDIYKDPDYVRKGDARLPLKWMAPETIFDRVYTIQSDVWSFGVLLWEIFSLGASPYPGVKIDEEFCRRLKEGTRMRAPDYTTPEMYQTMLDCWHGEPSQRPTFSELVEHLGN
Description for BaF3/Tel-FMS: (§2) Compounds of the invention are tested for their antiproliferative effect on Ba/F3 cells expressing either Tel-TrkA, Tel-TrkB or Tel-TrkC and an additional panel of 34 selected diverse kinases activated by fusion to the dimerizing partners Bcr or Tel (Abl, AlK, BMX, EphA3, EphB2, FGFR2, FGFR3, FGFR4, FGR, FLT1, FLT3, FLT4, FMS, IGF1R, InsR, JAK1, JAK2, JAK3, KDR, Kit, Lck, Lyn, MER, MET, PDGFRb, RET, RON, Ros-1, Src, Syk, TIE2, TYK2, Tie1, ZAP70). The antiproliferative effect of these compounds on the different cell lines and on the non transformed cells were tested at 12 different concentrations of 3-fold serially diluted compounds in 384 well plates as described above (in media lacking IL3). The IC50 values of the compounds the different cell lines were determined from the dose response curves obtained as describe above.
Description for BaF3/Tel-KDR: (§3) Cells are maintained in RPMI/10% fetal calf serum (RPMI/FCS) supplemented with penicillin 50 μg/mL, streptomycin 50 μg/mL and L-glutamine 200 mM. Untransformed Ba/F3 cells are similarly maintained with the addition of murine recombinant IL3. Cells are dispensed into 384-well format plate at 5000 cell/well in 50 μL of culture medium. Compounds of the invention are dissolved and diluted in dimethylsufoxide (DMSO). Twelve points 1:3 serial dilutions are made into DMSO to create concentrations gradient ranging from 10 mM to 0.05 μM. Cells are added with 50 nL of diluted compounds and incubated for 48 hours in cell culture incubator. Luminiscent signal is measured following the addition of Bright Glo® (Promega) luciferase substrate. IC50 values are calculated by linear regression analysis of the percentage inhibition of each compound at 12 concentrations.
Description for BaF3/Tel-KIT: as §2
Compounds were tested for their ability to inhibit the proliferation of wt Ba/F3 cells and Ba/F3 cells transformed with Tel c-Kit fused tyrosine kinases. Untransformed Ba/F3 cells are maintained in media containing recombinant IL3. Cells are plated into 384 well TC plates at 5,000 cells in 50 ul media per well and test compound at 0.06 nM to 10 μM is added. […] After incubating the cells, 25 μL of BRIGHT GLO® (Promega) is added to each well following manufacturer's instructions and the plates are read using Analyst GT—Luminescence mode—50000 integration time in RLU.
Description for BaF3/Tel-Syk: as §3

For `O=c1[nH]cnc2cc(-c3ccccc3)nc(Nc3ccc(N4CCOCC4)cc3)c12` [Example 4a, 5-(4-morpholinophenylamino)-7-phenylpyrido[4,3-d]pyrimidin-4(3H)-one], the values for the pIC50 on hSyk (full length) (read-out: IC50 in Syk enzymatic assay) and on Zap70 (kinase domain) were 7.05 and 4.42, respectively. For the same compound, the GI50 at BaF3/Tel-Syk came out at 160 nM; at BaF3/Tel-KDR, 1860 nM; on BaF3/Tel-FMS it was 7 nM; on BaF3/Tel-KIT, 30 nM.
Turning to `CC(C)Nc1nc(-c2ccc(C(C)(C)O)nc2)cc2ncn(C)c(=O)c12` [Example 6], the pIC50 on hSyk (full length) (setting [1]) is 6.72.
Still for that read-out and setting: the figure for `NCCCNc1cc2nc[nH]c(=O)c2c(Nc2ccc(N3CCOCC3)cc2)n1` [Example 13] is 8.25; for `O=c1[nH]cnc2cc(NCc3ccncc3)nc(Nc3ccc(N4CCOCC4)cc3)c12` [Example 25] it is 7.21.
As for `COc1ccc(-c2cc3ncn(C)c(=O)c3c(NCc3ccncc3)n2)cc1OC` [Example 114], the pIC50 at hSyk (full length) (setting [1]) was 7.40.
On the same count and under the same terms, under `CNc1cc(CNc2nc(-c3ccc(OC)c(OC)c3)cc3ncn(C)c(=O)c23)ccn1` [Example 183] stands 6.90; under `COc1ccc(-c2cc3ncn(C)c(=O)c3c(NCCc3ccccn3)n2)cc1OC` [Example 189], 6.59; under `COc1cc(-c2cc3ncn(C)c(=O)c3c(NCc3ccncc3)n2)ccc1N` [Example 194], 6.98.
Regarding `O=c1[nH]cnc2cc(-c3cc(Cl)ccc3Cl)nc(Nc3ccc(N4CCOCC4)cc3)c12` [Example 254], the pIC50 at hSyk (full length) (setting [1]) is 5.95.
`COCCOc1cc(-c2cc3ncn(C)c(=O)c3c(NCC(F)F)n2)ccc1OC` [Example 270]: at hSyk (full length) (setting [1]), the pIC50 is 6.86.
Same read-out and setting: the figure for `Cn1cnc2cc(-c3ccc4c(c3)NC(=O)C(C)(C)O4)nc(NCC(F)F)c2c1=O` [Example 273] is 6.70; for `Cn1cnc2cc(-c3ccc4c(c3)NC(=O)C4)nc(NCc3ccnc(N)c3)c2c1=O` [Example 278] it is 7.07; for `O=c1[nH]cnc2cc(N3CCS(=O)(=O)CC3)nc(Nc3ccc(N4CCOCC4)nc3)c12` [Example 305] it is 6.08.
On the same count and under the same terms, under `CN1CCC(c2ccc(Nc3nc(N4CCC(N5CCCCC5)CC4)cc4nc[nH]c(=O)c34)cc2)CC1` [Example 313] stands 7.37; under `CC(C)Nc1nc(-c2cnn(C)c2)cc2ncn(C)c(=O)c12` [Example 317], 6.90.
Still for that read-out and setting: under `CC(C)Nc1nc(-c2cnc3[nH]ccc3c2)cc2ncn(C)c(=O)c12` [Example 324] stands 6.47; under `Cn1cnc2cc(-c3cccc(S(C)(=O)=O)c3)nc(NC3CC3)c2c1=O` [Example 349], 6.43.
`CNc1nc(-c2ccc(C(C)(C)O)nc2)cc2ncn(C)c(=O)c12` [Example 352]: the pIC50 on hSyk (full length) (setting [1]) was 6.42.
On the same count and under the same terms, under `COc1cc(-c2cc3ncn(C)c(=O)c3c(NCC(F)F)n2)ccc1OCCCN1CCOCC1` [Example 366] stands 6.95; under `COc1cc(-c2cc3ncn(C)c(=O)c3c(NC[C@H](C)O)n2)ccc1OCCCN1CCOCC1` [Example 372], 6.94; under `CNS(=O)(=O)c1cc(-c2cc3ncn(C)c(=O)c3c(NC3CCC3)n2)ccc1OC` [Example 415], 6.88.
For the compound `COc1ccc(-c2cc3ncn(C)c(=O)c3c(Nc3ccc4cn[nH]c4c3)n2)cc1OC` [Example 418], on hSyk (full length) (setting [1]), the pIC50 was 6.27.

Values taken from patent US8354526B2, “Pyrido [4, 3-D] pyrimidinone derivatives as kinase inhibitors” (IRM LLC, priority 2008, dated 2013).
